Data taken from patent US8344146B2, “Inhibitor of DD-peptidase and its use as antibiotic or anticancer drug” (Narodowy Instytut Zdrowia Publicznego-Panstwowy Zaklad …, priority 2007, dated 2013).
In brackets after ≈: the same amount, converted by molar mass.

Legend:
[1] = test system: Bordetella bronchiseptica ATCC 4617; test: Spot-diffusion method, growth inhibition zones; assay type: cell-based; conditions: ATCC4617, 0.4 mg inhibitor per disc
Protocol: (§1) Inhibitor activity was also determined using the spot-diffusion method.
(§2) The analysis was performed using: Proteus vulgaris NCTC 4635, Bordetella bronchiseptica ATCC 4617, Stenotrophomonas maltophilia ATCC 13637. 24 bacterial cultures were used to make suspensions containing 0.2 McF, which was then diluted 100-fold. 0.1 ml of such a mixture was then placed on a dish with Muller-Hinton medium. Discs containing the examined inhibitor fractions were placed and incubated at 35° C. The determinations were carried out at 15 and 18 hours.
(§3) The following growth inhibition zones were obtained using 0.4 mg inhibitor per disc: […]

[2] = test system: Stenotrophomonas maltophilia ATCC 13637; test: Spot-diffusion method, growth inhibition zones; assay type: cell-based; conditions: ATCC13637, 0.4 mg inhibitor per disc
Protocol: as §1, §2, §3

[3] = test system: Proteus vulgaris NCTC 4635; test: Spot-diffusion method, growth inhibition zones; assay type: cell-based; conditions: NCTC4635, 0.4 mg inhibitor per disc
Protocol: as §1, §2, §3

[4] = test system: Bordetella bronchiseptica ATCC 4617; test: MIC, serial dilutions on solid media; assay type: cell-based; conditions: ATCC4617, MH II agar, 16 hours at 35° C., inhibitor fractions purified on ion-exchange column
Protocol: (§4) The antibacterial activity of the compound in question was determined using serial dilutions on solid media (MIC value determination) and using the spot-diffusion protocol. […] Standard bacterial strains used in the analysis:
(§5) A Petri dish was loaded with 0.25 ml of the sample in water and topped with MH II agar medium (Muller Hinton II) to 5 ml. The antibiotic concentration was 0.2 mg/ml medium. Additionally, a control without the antibiotic was made containing 5 ml of MH II. Using a densitometer, bacterial suspensions were made in NaCl solution containing 0.5 McF (10^8 CFU/ml), and subsequently dilutions thereof were made.
(§6) The following dilution series was made: • 10^4 CFU/ml NaCl for strains 6, 7, 8, 9 • 10^5 CFU/ml Nan for strains 1, 2, 3, 4, 5, 10, 11
(§7) After the medium set, 2 μl of bacterial suspension of each strain was inoculated onto the medium yielding 10^2 CFU/ml for strains 6, 7, 8, 9 and 10^3 CFU/ml for strains 1, 2, 3, 4, 5, 10, 11. Each suspension was loaded onto each plate. the incubation was performed for 16 hours at 35° C.

[5] = test system: Burkholderia cepacia ATCC 25416; test: MIC, serial dilutions on solid media; assay type: cell-based; conditions: ATCC25416, MH II agar, 16 hours at 35° C., inhibitor fractions purified on ion-exchange column
Protocol: as §4, §5, §6, §7

[6] = test system: Escherichia coli ATCC 25922; test: MIC, serial dilutions on solid media; assay type: cell-based; conditions: ATCC25922, MH II agar, 16 hours at 35° C., inhibitor fractions purified on ion-exchange column
Protocol: as §4, §5, §6, §7

[7] = test system: Acinetobacter baumanii ATCC 19606; test: MIC, serial dilutions on solid media; assay type: cell-based; conditions: Acinetobacter baumannii, ATCC19606, MH II agar, 16 hours at 35° C., inhibitor fractions purified on ion-exchange column
Protocol: as §4, §5, §6, §7

[8] = test system: Staphylococcus aureus ATCC 6538P; test: MIC, serial dilutions on solid media; assay type: cell-based; conditions: ATCC6538P, MH II agar, 16 hours at 35° C., inhibitor fractions purified on ion-exchange column
Protocol: as §4, §5, §6, §7

[9] = test system: Staphylococcus aureus NCTC 4163; test: MIC, serial dilutions on solid media; assay type: cell-based; conditions: NCTC4163, MH II agar, 16 hours at 35° C., inhibitor fractions purified on ion-exchange column
Protocol: as §4, §5, §6, §7

[10] = test system: Escherichia coli NCTC 8196; test: MIC, serial dilutions on solid media; assay type: cell-based; conditions: NCTC8196, MH II agar, 16 hours at 35° C., inhibitor fractions purified on ion-exchange column
Protocol: as §4, §5, §6, §7

[11] = test system: Klebsiella pneumoniae ATCC 13883; test: MIC, serial dilutions on solid media; assay type: cell-based; conditions: ATCC13883, MH II agar, 16 hours at 35° C., inhibitor fractions purified on ion-exchange column
Protocol: as §4, §5, §6, §7

[12] = test system: Stenotrophomonas maltophilia ATCC 13637; test: MIC, serial dilutions on solid media; assay type: cell-based; conditions: ATCC13637, MH II agar, 16 hours at 35° C., inhibitor fractions purified on ion-exchange column
Protocol: as §4, §5, §6, §7

[13] = test system: Enterococcus faecalis ATCC 29219; test: MIC, serial dilutions on solid media; assay type: cell-based; conditions: ATCC29219, MH II agar, 16 hours at 35° C., inhibitor fractions purified on ion-exchange column
Protocol: as §4, §5, §6, §7

[14] = test system: Proteus vulgaris NCTC 4635; test: MIC, serial dilutions on solid media; assay type: cell-based; conditions: NCTC4635, MH II agar, 16 hours at 35° C., inhibitor fractions purified on ion-exchange column
Protocol: as §4, §5, §6, §7

[15] = target: T1, DD-peptidase R61 (Streptomyces sp., UniProt P15555); test: Life of the inhibitor-enzyme complex, R61; assay type: biochemical, Streptomyces sp. R61
T1 construct: DD-peptidase R61 produced by Streptomyces sp; R61; gift: Prof; Jean-Maria Ghuysen; host or cells: Streptomyces sp; R61 (natural producer)
Protocol: (§8) The Life of the Inhibitor-Enzyme Complex was Also Determined.
(§9) The incubation was performed from several to several dozen hours of each enzyme and inhibitor (as described above). Next, the reaction mixture was added, and determinations were performed.

[16] = test system: Candida albicans ATCC 10231; test: Antifungal activity analysis, disc on Sabourand medium; assay type: cell-based; conditions: discs with 1 mg, 35° C. for 24 h; inhibitor fractions following stage 2 of purification
Protocol: A Petri dish with solid Sabourand medium with 4% glucose was inoculated with a Candida albicans ATCC 10231 suspension, at 0.02 McF density. Tissue discs soaked in the inhibitor solution were then placed on the medium (1 mg). The incubation was performed at 35° C. for 24 h.

[17] = test system: class A β-lactamase (penicillinase, Penase); test: β-lactamase inhibitor activity, nitrocefin method; assay type: biochemical; conditions: 482 nm, 30 min preincubation at 37° C.
Protocol: Determination of β-Lactamase Inhibitor Activity Using the Nitrocefin Method (O'Callaghan et al. 1972)^2.
reagents used in the assay: 0.1 mM nitrocefin solution containing 0.5 mg nitrocefin (Glaxo), 0.5 cm^3 DMSO (Fluka), 9.5 cm^3 0.1 M PBS pH 7.0; class A β-lactamase (penicillinase, Penase, 5×10^6 IU/ml, Bacto).
20 mm^3 of the examined inhibitor in 0.1 M PBS pH 7.0 were supplemented with 10 mm^3 β-lactamase, incubated for 30 min. at 37° C. Next, 30 mm^3 of 0.1 mM nitrocefin solution were added, and 430 mm^3 of 0.1M PBS pH 7.0. The samples were incubated for 10 min. at 37° C. and evaluated spectrophotometrically at 482 nm. The molar extinction coefficient was 15000 M^−1·cm^−1.

[18] = Inhibitor characteristics: solubility; assay type: physicochemical
Source text: • 1.) Solid yellow in colour. • 2.) Solubility. The inhibitor is soluble in PBS pH 7.2-8.0; soluble in an aqueous environment with low levels of K^+, Na^+. It also dissolves in methanol, DMSO, but degrades in these solvents.

[19] = target: T2, DD-peptidase R39 (Actinomadura sp., UniProt P39045); test: Life of the inhibitor-enzyme complex, R39; assay type: biochemical, Actinomadura sp. R39
T2 construct: extracellular DD-peptidase R39 produced by Actinomadura sp; R39; gift: Prof; Jean-Maria Ghuysen; host or cells: Actinomadura sp; R39 (natural producer, secreted)
Protocol: as §8, §9

[20] = target: T1, DD-peptidase R61; test: DD-peptidase R61 activity inhibition (ID50); assay type: biochemical; conditions: DD-peptidase R61, purified inhibitor; read-out: ID50 (M), molar concentration of inhibitor which inhibits 50% of enzyme activity
[21] = target: T2, DD-peptidase R39; test: DD-peptidase R39 activity inhibition (ID50); assay type: biochemical; conditions: DD-peptidase R39, purified inhibitor; read-out: ID50 (M), molar concentration of inhibitor which inhibits 50% of enzyme activity
[22] = test system: β-lactamase; test: Inhibitor stability in a β-lactamase environment; assay type: biochemical
Protocol: Determination of Inhibitor Stability in a β-Lactamase Environment.
A method of evaluation inhibitor stability was designed using a combination of the above two methods. An initial incubation of the inhibitor with β-lactamase was performed, and then the reagents for determining DD-peptidase activity inhibition were added. The absorbance of the experimental sample was 0.05, whereas for the control sample (DD-peptidase) it was 0.35. […] It is not hydrolysed by β-lactamase.

T1 sequence (P15555 32-380): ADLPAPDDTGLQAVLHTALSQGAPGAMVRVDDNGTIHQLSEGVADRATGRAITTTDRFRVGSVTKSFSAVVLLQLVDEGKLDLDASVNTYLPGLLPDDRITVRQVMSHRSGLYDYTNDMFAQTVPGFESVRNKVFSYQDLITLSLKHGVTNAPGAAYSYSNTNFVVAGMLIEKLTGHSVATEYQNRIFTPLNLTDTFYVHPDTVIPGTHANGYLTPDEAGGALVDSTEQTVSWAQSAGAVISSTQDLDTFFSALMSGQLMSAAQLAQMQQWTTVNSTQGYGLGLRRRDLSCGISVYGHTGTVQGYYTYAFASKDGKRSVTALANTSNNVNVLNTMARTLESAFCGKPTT
T2 sequence (P39045 50-538): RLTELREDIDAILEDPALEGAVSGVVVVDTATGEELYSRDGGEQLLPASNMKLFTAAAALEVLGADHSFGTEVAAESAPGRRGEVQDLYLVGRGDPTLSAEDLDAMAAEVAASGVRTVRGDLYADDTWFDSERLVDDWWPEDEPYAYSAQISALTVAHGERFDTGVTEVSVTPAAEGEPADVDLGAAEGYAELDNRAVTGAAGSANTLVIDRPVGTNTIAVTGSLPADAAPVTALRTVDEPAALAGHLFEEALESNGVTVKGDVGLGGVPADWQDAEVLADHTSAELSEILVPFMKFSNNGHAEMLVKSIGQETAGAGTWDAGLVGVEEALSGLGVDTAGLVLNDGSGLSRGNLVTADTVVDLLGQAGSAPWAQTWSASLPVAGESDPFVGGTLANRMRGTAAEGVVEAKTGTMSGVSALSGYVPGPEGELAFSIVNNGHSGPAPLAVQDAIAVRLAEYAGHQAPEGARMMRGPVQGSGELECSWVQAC

For `O=C1C=C2CC(C(=O)O)NC=C2C=C1O` (stereo not drawn) [inhibitor, 7-hydroxy-6-oxo-2,3,4,6-tetrahydroisochinolin-3-carboxylic acid], the zone of inhibition at 400 µg/disc ([1]; after 15 h) was 19 mm, the zone of inhibition at 400 µg/disc ([1]; after 18 h) was 19 mm and the zone of inhibition at 400 µg/disc ([2]; after 15 h) was 16 mm. The zone of inhibition at 400 µg/disc ([2]; after 18 h) was 15 mm, the zone of inhibition at 400 µg/disc ([3]; after 15 h) was 20 mm and the zone of inhibition at 400 µg/disc ([3]; after 18 h) was 19 mm. The MIC [4] was 200 µg/mL (≈ 965 µM), the MIC [5] was > 200 µg/mL and the MIC [6] was > 200 µg/mL. The MIC [7] was > 200 µg/mL, the MIC [8] was > 200 µg/mL and the MIC [9] was > 200 µg/mL. For the same compound, the MIC [10] was > 200 µg/mL, the MIC [11] was > 200 µg/mL and the MIC [12] was 200 µg/mL (≈ 965 µM). For the same compound, the MIC [13] was > 200 µg/mL, the MIC [14] was 200 µg/mL (≈ 965 µM) and the “life of the inhibitor-DD-peptidase R 61 complex” value [15] was “about 33 hours”. The “antifungal activity against Candida albicans ATCC 10231” value [16] was “does not exhibit antifungal activity”, the “inhibition of class A β-lactamase” value [17] was “did not inhibit” and the “solubility in PBS pH 7.2-8.0” value ([18]; PBS pH 7.2-8.0) was “soluble”. The “solubility in an aqueous environment with low levels of K+, Na+” value ([18]; aqueous, low levels of K+, Na+) was “soluble”, the “solubility in ethyl acetate, methylene chloride, chloroform, amyl acetate, acetonitrile” value ([18]; ethyl acetate, methylene chloride, chloroform, amyl acetate, acetonitrile) was “not soluble” and the “solubility in methanol, DMSO” value ([18]; methanol, DMSO) was “dissolves”. The “stability in methanol, DMSO” value ([18]; methanol, DMSO) was “degrades”, the “life of the inhibitor-DD-peptidase R 39 complex” value [19] was 3.5 h and the IC50 [20] was 0.000675 M. For the same compound, the IC50 [21] was 0.00045 M, the “stability of DD-peptidase inhibitory activity in the presence of class A β-lactamase” value ([22]; 24 h incubation in β-lactamase at room temperature) was “completely stable” and the “stability in a β-lactamase environment” value ([22]; initial incubation with β-lactamase, then DD-peptidase 64-575 II inhibition) was “stable in a β-lactamase environment”.
